Data on seven compounds can be found in publication PMC5796035 (2017).

Experiment [1] deals with R12.51 (DNA, aptamer) TGTACCGTCTGAGCGATTCGTACAGTTTCTGGAGGACTGGGCGGGGTGACGGTTATGAGCCAGTCAGTGTTAAGGAGTGC
As to the kind of experiment: competitive elution from immobilised fipronil, fluorescence. The settings on record: 100 mM NaCl, 2 mM MgCl2, 20 mM Tris-HCl.

The test system is the same in experiment [2]. As to the kind of experiment: plate-based fluorescence saturation binding. The settings on record: 100 mM NaCl, 2 mM MgCl2; immobilised compound (maleic anhydride plate); 20 mM Tris-HCl; mean of four assays (55, 35, 38, 64 nM).

For `CCC(=O)Nc1ccc(Cl)c(Cl)c1`, in experiment [1] (1 µM, fipronil/compound ratio 1.52 (5.05 at 200 nM in river water/buffer)), the binding result was “weak”.

As to `CCNc1nc(Cl)nc(NC(C)C)n1`, the binding entry in experiment [1] (1 µM, fipronil/compound ratio 1.23 (4.80 at 200 nM in river water/buffer)) is reported as “weak”. Take `CCS(=O)c1c(C#N)nn(-c2c(Cl)cc(C(F)(F)F)cc2Cl)c1N` (centres unmarked): the binding result in experiment [1] (1 µM, displaces MRE from immobilised fipronil, fipronil/compound ratio 1.10) is “yes”. Turning to `N#Cc1nn(-c2c(Cl)cc(C(F)(F)F)cc2Cl)c(N)c1C(F)(F)F`, in experiment [1] (1 µM, displaces MRE from immobilised fipronil, fipronil/compound ratio 1.16), the binding entry was “yes”. Consider `N#Cc1nn(-c2c(Cl)cc(C(F)(F)F)cc2Cl)c(N)c1S(=O)(=O)C(F)(F)F`, for which the binding result in experiment [1] (1 µM, displaces MRE from immobilised fipronil, fipronil/compound ratio 1.07) is “yes”. The term Kd denotes the concentration at which binding is half-saturated. A higher Kd goes with weaker binding. On to `N#Cc1nn(-c2c(Cl)cc(C(F)(F)F)cc2Cl)c(N)c1S(=O)C(F)(F)F` (centres unmarked), for which, in experiment [1] (free compound 1 µM, normalized fluorescence 2.413 (no target 0.247)), the binding entry is listed as “yes”. In addition, the dissociation constant Kd in experiment [2] came out at 48 ± 8 nM.

For `N#Cc1nn(-c2c(Cl)cc(C(F)(F)F)cc2Cl)c(N)c1SC(F)(F)F`, the binding entry in experiment [1] (1 µM, displaces MRE from immobilised fipronil, fipronil/compound ratio 0.89) was “yes”.
